≈ marks a conversion by molar mass, not a printed value. Like-named read-outs stand apart in the source and are kept apart here.

In assay [1] the test system is cells from the thymus of normal BALB/c mice (lymphocyte proliferation). The experiment in a line: comitogen-induced thymocyte proliferation procedure (LAF). Type of assay: cell-based. Conditions: Mus musculus. As for the experimental part:
Immunosuppressive activity was evaluated in an in vitro standard pharmacological test procedure to measure lymphocyte proliferation (LAF).
Briefly, cells from the thymus of normal BALB/c mice are cultured for 72 hours with PHA and IL-1 and pulsed with tritiated thymidine during the last six hours. Cells are cultured with and without various concentrations of rapamycin, cyclosporin A, or test compound. Cells are harvested and incorporated radioactivity is determined. Inhibition of lymphoproliferation is assessed as percent change in counts per minute from non-drug treated controls. The results are expressed as an IC50.

Assay [2] has as its system Candida albicans ATCC 38246. Briefly: antifungal plate test procedure. The note with it: ATCC38246, strain ATCC 38246, plate disk test, read-out: MIC to inhibit growth. The class given is cell-based. As for the experimental part: (§1) Antifungal activity of a representative compound of this invention was measured against 5 strains of Candida albicans using a plate test procedure for measurement of inhibition. The following represents the typical procedure used. Compound to be tested was placed on sterile dried 1/4" plate disks, and allowed to dry. Agar plates were seeded with fungi and allowed to solidify. The impregnated disks were placed on the seeded Agar surface and incubated for the time required for the particular culture.

Another assay has as its system Candida albicans 3669. Briefly: antifungal plate test procedure. The class given is cell-based. The note with it: strain 3669, plate disk test, read-out: MIC to inhibit growth. As for the experimental part:
as §1

The test system of assay [3] is Candida albicans ATCC 10231. The experiment in a line: antifungal plate test procedure. The class given is cell-based. Conditions: ATCC10231, strain ATCC 10231, plate disk test, read-out: MIC to inhibit growth. On the procedure:
as §1

In assay [4] the test system is Candida albicans ATCC 38247. Briefly: antifungal plate test procedure. Type of assay: cell-based. Conditions: ATCC38247, strain ATCC 38247, plate disk test, read-out: MIC to inhibit growth. On the procedure: as §1
Assay [5] deals with Candida albicans ATCC 38248. Briefly: antifungal plate test procedure. The class given is cell-based. The note with it: ATCC38248, strain ATCC 38248, plate disk test, read-out: MIC to inhibit growth. On the procedure: as §1
Another assay deals with IgE-like antibodies. The note with it: in vivo; cited from earlier work.
The conditions of assay [6]: model for rheumatoid arthritis; cited from earlier work.
The conditions of assay [7]: model for multiple sclerosis; cited from earlier work.
The test system of a further assay is Candida albicans. The note with it: in vitro and in vivo; cited from earlier work.
For assay [8] the following is noted: cited from earlier work.
Where [9] appears, read: read-out: IC50 (LAF), 72 h culture with PHA and IL-1, tritiated thymidine last six hours, table 1.

Consider `CO[C@H]1C[C@@H]2CC[C@@H](C)[C@@](O)(O2)C(=O)C(=O)N2CCCC[C@H]2C(=O)O[C@H]([C@H](C)C[C@@H]2CC[C@@H](O)[C@H](OC)C2)CC(=O)[C@H](C)/C=C(\C)[C@@H](OC(C)=O)[C@@H](OC)C(=O)[C@H](C)C[C@H](C)/C=C/C=C/C=C/1C` [rapamycin-31-acetate, Rapamycin 31-acetate], for which the concentration for half-maximal inhibition (IC50) in assay [1] (rapamycin-31-acetate and rapamycin evaluated contemporaneously, read-out: IC50 (LAF)) was determined as 56.5 nM.
As to `CO[C@H]1C[C@@H]2CC[C@@H](C)[C@@](O)(O2)C(=O)C(=O)N2CCCC[C@H]2C(=O)O[C@H]([C@H](C)C[C@@H]2CC[C@@H](O)[C@H](OC)C2)CC(=O)[C@H](C)/C=C(\C)[C@@H](O)[C@@H](OC)C(=O)[C@H](C)C[C@H](C)/C=C/C=C/C=C/1C` [Rapamycin], the MIC is 0.025 µg/mL (≈ 0.0273 µM) in [2]; 0.025 µg/mL (≈ 0.0273 µM) in the assay with Candida albicans 3669; 0.003 µg/mL (≈ 0.00328 µM) in assay [3]; 0.003 µg/mL (≈ 0.00328 µM) in assay [4]; 6 ng/mL (≈ 0.00656 µM) in assay [5]. Further, the “inhibition of formation of IgE-like antibodies” value in the assay on IgE-like antibodies is recorded as “effectively inhibited the formation of IgE-like antibodies”. For the same molecule, in [6], the “effect in adjuvant arthritis model” value is listed as “effective”. For the same molecule, the “effect in experimental allergic encephalomyelitis model” value in assay [7] is “effective”. Further, in the assay on Candida albicans, the antifungal activity result was “antifungal activity, particularly against Candida albicans, both in vitro and in vivo”. Moreover, the IC50 is 3.2 nM in assay [1] (setting [9]); 7.8 nM in [1] (read-out: IC50 (LAF), rapamycin-31-acetate and rapamycin evaluated contemporaneously). Also, the antitumor activity result in assay [8] (in combination with picibanil) and in assay [8] (rapamycin alone) was “shown to have antitumor activity” throughout.
In the case of `CO[C@H]1C[C@@H]2CC[C@@H](C)[C@@](O)(O2)C(=O)C(=O)N2CCCC[C@H]2C(=O)O[C@H]([C@H](C)C[C@@H]2CC[C@@H](O[Si](C)(C)C(C)(C)C)[C@H](OC)C2)CC(=O)[C@H](C)/C=C(\C)[C@@H](O)[C@@H](OC)C(=O)[C@H](C)C[C@H](C)/C=C/C=C/C=C/1C` [Example 1, Rapamycin 42-O-[(1,1-Dimethylethyl)dimethylsilyl]ether], the MIC in assay [2] was over 0.4 µg/mL; in the assay with Candida albicans 3669, over 0.4 µg/mL; in [3], 0.2 µg/mL (≈ 0.194 µM); in [4], 0.2 µg/mL (≈ 0.194 µM); in assay [5], over 400 ng/mL. In addition, the IC50 in assay [1] (setting [9]) came out at 45.8 nM.

These data come from patent US5120842A, “Silyl ethers of rapamycin” (American Home Products Corporation, priority 1991, dated 1992).
